From US20220323406A1, “METHODS AND COMPOSITIONS FOR DIFFERENTIATING STEM CELLS” (Massachusetts Institute of Technology, priority 2019, published 2022)

How the values were obtained:
ENR+CD organoids [1] = test: Primary screen: ATP (CellTiter-Glo 3D, CTG) cell number/viability, 2.5-D 384-well ENR+CD organoids; details: primary screen;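 note: compounds given at plating and again on day 3 over a 6-day differentiation from ENR+CV stem-cell-enriched precursors, ATP measured on day 6, plate median as control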
[2] = tested on: ENR+CD organoids (ISC to Paneth cell differentiation); test: Secondary (validation) screen: LYZ.S CCh-stimulated lysozyme secretion, 2.5-D 384-well ENR+CD organoids; assay type: cell-based, mouse; details: 6-day ENR+CD, vs ENR+CD+DMSO
Procedure: (§1) Drugs were tested at a narrowed dose range around each treatment's identified optimal dose from the primary screen (4× below, 2× above and below).
(§2) High-throughput screening.
(§3) Secondary lysozyme secretion assay screen. Confirmatory secondary screening with primary hits was performed using the above 384-well plate method. The screen was conducted with 4-plate replicates with a base media of ENR+CD. Media was supplemented with compound at day 0 and day 3 (n=8 well replicates per dose) at four different doses: two-fold above, two-fold below, and four-fold below the optimal final dose for each respective treatment. Additionally, each plate carried a large number of ENR+DMSO or ENR+CD+DMSO (vehicle) control wells (n=100 for ATP, and n=25 for LYZ.NS and LYZ.S) for robust normalization. ATP, non-stimulated lysozyme activity and CCh-stimulated lysozyme activity was again measured and the collected data was again processed in a custom R-script, per primary screen with slight modification. Values were log10 transformed, and a plate-wise FC was calculated for each well based on the median value of ENR+CD+DMSO (vehicle) control wells to normalize plate to plate variability.

[3] = tested on: ENR+CD organoids (ISC to Paneth cell differentiation); test: Primary screen: basal (non-stimulated) lysozyme secretion LYZ.NS, 2.5-D 384-well ENR+CD organoid differentiation; assay type: cell-based, mouse
Text: as §2

[4] = tested on: ENR+CD organoids (ISC to Paneth cell differentiation); test: Primary screen: CCh-stimulated lysozyme secretion LYZ.S, 2.5-D 384-well ENR+CD organoid differentiation; assay type: cell-based, mouse; details: primary screen
Text: as §2

[5] = tested on: ENR+CD organoids (ISC to Paneth cell differentiation); test: Secondary (validation) screen: LYZ.NS basal lysozyme secretion, 2.5-D 384-well ENR+CD organoids; assay type: cell-based, mouse; details: 6-day ENR+CD, vs ENR+CD+DMSO
Procedure: as §1, §2, §3

ENR+CD organoids [6] = test: Secondary (validation) screen: ATP (CTG) assay, 2.5-D 384-well ENR+CD organoids; assay type: cell-based, mouse; details: 6-day ENR+CD, vs ENR+CD+DMSO
Procedure: as §1, §2, §3

[7] = dose 0.08 uM, FC relative to plate median
[8] = dose 0.40 uM, FC relative to plate median
[9] = dose 2.00 uM, FC relative to plate median
[10] = dose 10.00 uM, FC relative to plate median

## CC(C)(C)NC(=O)[C@H]1CC[C@H]2[C@@H]3CC[C@H]4NC(=O)C=C[C@]4(C)[C@H]3CC[C@]12C [Finasteride, reference compound]
ENR+CD organoids [1]; dose 0.08 uM
  Dose.FC.CTG: 0.151 log2 fold change
ENR+CD organoids [1]; dose 0.40 uM
  Dose.FC.CTG: −0.038 log2 fold change
ENR+CD organoids [1]; dose 2.00 uM
  Dose.FC.CTG: 0.073 log2 fold change
ENR+CD organoids [1]; dose 10.00 uM
  Dose.FC.CTG: −0.041 log2 fold change
[2]; 0.02 uM
  Dose.FC.LYZ.S: −0.019 log2 fold change
[2]; 0.04 uM
  Dose.FC.LYZ.S: −0.260 log2 fold change
[2]; 0.08 uM
  Dose.FC.LYZ.S: −0.242 log2 fold change
[2]; […]
  Dose.FC.LYZ.S: −0.253 log2 fold change
[3]; LYZ.NS and LYZ.S; 0.08-10 uM, 6 days ENR+CD
  primary screen hit call (SSMD and z-scored FC cutoffs in both LYZ assays): sole hit in their respective pathway
[3]; primary screen, dose 0.08 uM
  Dose.FC.LYZ.NS: 0.205 log2 fold change
[3]; primary screen, dose 0.40 uM
  Dose.FC.LYZ.NS: 0.213 log2 fold change
[3]; primary screen, dose 2.00 uM
  Dose.FC.LYZ.NS: 0.142 log2 fold change
[3]; primary screen, dose 10.00 uM
  Dose.FC.LYZ.NS: 0.067 log2 fold change
[3]; primary screen, standard z score, dose 0.08 uM
  Z.LYZ.NS: 1.781
[3]; primary screen, standard z score, dose 0.40 uM
  Z.LYZ.NS: 1.852
[3]; primary screen, standard z score, dose 2.00 uM
  Z.LYZ.NS: 1.236
[3]; primary screen, standard z score, dose 10.00 uM
  Z.LYZ.NS: 0.587
[4]; dose 0.08 uM
  Dose.FC.LYZ.S: 0.199 log2 fold change
[4]; dose 0.40 uM
  Dose.FC.LYZ.S: 0.211 log2 fold change
[4]; dose 2.00 uM
  Dose.FC.LYZ.S: 0.156 log2 fold change
[4]; dose 10.00 uM
  Dose.FC.LYZ.S: 0.056 log2 fold change
[5]; 0.02 uM
  Dose.FC.LYZ.NS: 0.056 log2 fold change
[5]; 0.04 uM
  Dose.FC.LYZ.NS: −0.189 log2 fold change
[5]; 0.08 uM
  Dose.FC.LYZ.NS: −0.191 log2 fold change
[5]; […]
  Dose.FC.LYZ.NS: −0.203 log2 fold change
ENR+CD organoids [6]; 0.02 uM
  Dose.FC.CTG: 0.066 log2 fold change
ENR+CD organoids [6]; 0.04 uM
  Dose.FC.CTG: −0.180 log2 fold change
ENR+CD organoids [6]; 0.08 uM
  Dose.FC.CTG: −0.011 log2 fold change
ENR+CD organoids [6]; […]
  Dose.FC.CTG: −0.065 log2 fold change

## N#CC[C@H](C1CCCC1)n1cc(-c2ncnc3[nH]ccc23)cn1 [Ruxolitinib (INCB018424), Ruxolitinib, reference compound]
ENR+CD organoids [1]; [7]
  Dose.FC.CTG: 0.458 log2 fold change
ENR+CD organoids [1]; [8]
  Dose.FC.CTG: 0.363 log2 fold change
ENR+CD organoids [1]; [9]
  Dose.FC.CTG: 0.445 log2 fold change
ENR+CD organoids [1]; [10]
  Dose.FC.CTG: 0.477 log2 fold change
[2]; 2.50 uM
  Dose.FC.LYZ.S: −0.182 log2 fold change
[2]; 5.00 uM
  Dose.FC.LYZ.S: −0.217 log2 fold change
[2]; 10.00 uM
  Dose.FC.LYZ.S: −0.168 log2 fold change
[2]; 20.00 uM
  Dose.FC.LYZ.S: 0.027 log2 fold change
[3]; primary screen, dose 0.08 uM, FC relative to plate median
  Dose.FC.LYZ.NS: 0.122 log2 fold change
[3]; primary screen, dose 0.08 uM, standard z score
  Z.LYZ.NS: 1.066
[3]; primary screen, dose 0.40 uM, FC relative to plate median
  Dose.FC.LYZ.NS: 0.070 log2 fold change
[3]; primary screen, dose 0.40 uM, standard z score
  Z.LYZ.NS: 0.611
[3]; primary screen, dose 2.00 uM, FC relative to plate median
  Dose.FC.LYZ.NS: 0.110 log2 fold change
[3]; primary screen, dose 2.00 uM, standard z score
  Z.LYZ.NS: 0.954
[3]; primary screen, dose 10.00 uM, FC relative to plate median
  Dose.FC.LYZ.NS: 0.295 log2 fold change
[3]; primary screen, dose 10.00 uM, standard z score
  Z.LYZ.NS: 2.569
[4]; [7]
  Dose.FC.LYZ.S: 0.150 log2 fold change
[4]; [8]
  Dose.FC.LYZ.S: 0.067 log2 fold change
[4]; [9]
  Dose.FC.LYZ.S: 0.105 log2 fold change
[4]; [10]
  Dose.FC.LYZ.S: 0.317 log2 fold change
[5]; 2.50 uM
  Dose.FC.LYZ.NS: −0.157 log2 fold change
[5]; 5.00 uM
  Dose.FC.LYZ.NS: −0.138 log2 fold change
[5]; 10.00 uM
  Dose.FC.LYZ.NS: −0.084 log2 fold change
[5]; 20.00 uM
  Dose.FC.LYZ.NS: 0.065 log2 fold change
ENR+CD organoids [6]; 2.50 uM
  Dose.FC.CTG: −0.014 log2 fold change
ENR+CD organoids [6]; 5.00 uM
  Dose.FC.CTG: −0.224 log2 fold change
ENR+CD organoids [6]; 10.00 uM
  Dose.FC.CTG: −0.153 log2 fold change
ENR+CD organoids [6]; 20.00 uM
  Dose.FC.CTG: 0.166 log2 fold change
